Drawing on patent US20180344702A1, “METHODS FOR TREATING PATIENTS WITH HEMATOLOGIC MALIGNANCIES” (Aptose Biosciences, Inc., priority 2017, published 2018), this text covers IC50 for 3 molecules.

The subject of assay [1] is Ba/F3 cells transfected with FLT3 ITD-F691L. Put plainly: Cytotoxicity in isogenic transfected Ba/F3 cells (Table 4). It is filed as cell-based, Murin. The conditions noted are these: Mus musculus, BaF3; n = 3; read-out: IC50 in Transfected Ba/F3 cells, FLT3 ITD-F691L.
Assay [2] concerns Ba/F3 cells transfected with FLT3 ITD. The assay is described as above. The conditions noted are these: Mus musculus, BaF3; n = 3; read-out: IC50 in Transfected Ba/F3 cells, FLT3 ITD. Type of assay: cell-based, Murin.
In assay [3] the test system is Ba/F3 cells transfected with FLT3 WT. The description is as above. It is filed as cell-based, Murin. The conditions noted are these: Mus musculus, BaF3; n = 3; read-out: IC50 in Transfected Ba/F3 cells, FLT3 WT.
For assay [4], the system named is Ba/F3 cells transfected with FLT3 ITD-D835Y. The assay is described as above. It is filed as cell-based, Murin. The conditions noted are these: Mus musculus, BaF3; n = 3; read-out: IC50 in Transfected Ba/F3 cells, FLT3 ITD-D835Y.
In assay [5] the test system is Ba/F3 cells transfected with FLT3 D835Y. The description is as above. Type of assay: cell-based, Murin. The settings on record: Mus musculus, BaF3; n = 3; read-out: IC50 in Transfected Ba/F3 cells, FLT3 D835Y.
Assay [6] deals with Ba/F3-ITD + D835H (FLT3-ITD + D835H). Put plainly: Antiproliferative activity (Table 6). Type of assay: cell-based, Murin. The conditions noted are these: Ba/F3-ITD + D835H; 48 h (Gilteritinib); read-out: IC50.
Assay [7] deals with Ba/F3-D835Y (FLT3-D835Y). Put plainly: Antiproliferative activity (Table 6). It is filed as cell-based, Murin. The conditions noted are these: Ba/F3-D835Y; 48 h (Gilteritinib); read-out: IC50.
Assay [8] concerns MOLM14 (FLT3-ITD, t(9:11)). Put plainly: Antiproliferative activity (Table 6). Type of assay: cell-based. The conditions noted are these: Homo sapiens, MOLM-14; MOLM14; 48 h (Gilteritinib); read-out: IC50.
Assay [9] concerns Ba/F3-FLT3 (FLT3-WT). Put plainly: Antiproliferative activity (Table 6). It is filed as cell-based, Murin. The conditions noted are these: Ba/F3-FLT3, FLT3-WT; 48 h (Gilteritinib); read-out: IC50.
Assay [10] has as its system Ba/F3-ITD + 842 (ITD + Y842C). Put plainly: Antiproliferative activity (Table 6). The conditions noted are these: Ba/F3-ITD + 842 (ITD + Y842C); 48 h (Gilteritinib); read-out: IC50. Type of assay: cell-based, Murin.
The subject of assay [11] is MV4-11 (FLT3-ITD, t(4:11)). Put plainly: Antiproliferative activity (Table 6). The conditions noted are these: Homo sapiens; MV4-11; 48 h (Gilteritinib); read-out: IC50. Type of assay: cell-based.
In assay [12] the test system is Ba/F3-D835G (FLT3-D835G). Put plainly: Antiproliferative activity (Table 6). It is filed as cell-based, Murin. The settings on record: Ba/F3-D835G; 48 h (Gilteritinib); read-out: IC50.
In assay [13] the test system is Ba/F3-ITD + 691 (ITD + F691L). Put plainly: Antiproliferative activity (Table 6). It is filed as cell-based, Murin. The settings on record: Ba/F3-ITD + 691 (ITD + F691L); 48 h (Gilteritinib); read-out: IC50.
Assay [14] concerns MOLM13 (FLT3-ITD, t(9:11)). Put plainly: Antiproliferative activity (Table 6). Type of assay: cell-based. The conditions noted are these: Homo sapiens, MOLM-13; MOLM13; 48 h (Gilteritinib); read-out: IC50.
Assay [15] has as its system Ba/F3-ITD (FLT3-ITD). Put plainly: Antiproliferative activity (Table 6). The settings on record: Ba/F3-ITD; 48 h (Gilteritinib); read-out: IC50. It is filed as cell-based, Murin.
Assay [16] has as its system THP-1 (FLT3-WT, t(9:11)). Put plainly: Antiproliferative activity (Table 6). Type of assay: cell-based. The settings on record: Homo sapiens; THP-1; 48 h (Gilteritinib); read-out: IC50.
The test system of assay [17] is Ba/F3-ITD + D835Y (FLT3-ITD + D835Y). Put plainly: Antiproliferative activity (Table 6). It is filed as cell-based, Murin. The settings on record: Ba/F3-ITD + D835Y; 48 h (Gilteritinib); read-out: IC50.
In assay [18] the test system is Kasumi-1 (FLT3-WT). Put plainly: Antiproliferative activity (Table 6). It is filed as cell-based. The conditions noted are these: Homo sapiens; Kasumi-1; 48 h (Gilteritinib); read-out: IC50.
Assay [19] concerns the target ITK (Homo sapiens, UniProt Q08881). Put plainly: Key off-targets (Table 8). Type of assay: biochemical.
Assay [20] concerns the target BTK C481S (Homo sapiens, UniProt Q06187, C481S). Put plainly: Comparative potency against BTK (Table 8). It is filed as biochemical. The conditions noted are these: x printed without key.
Assay [21] addresses BTK WT (Homo sapiens, UniProt Q06187). Put plainly: Comparative potency against BTK (Table 8). Type of assay: biochemical. The settings on record: Table 8, wild-type BTK.

Chain of BTK WT (Q06187 whole entry): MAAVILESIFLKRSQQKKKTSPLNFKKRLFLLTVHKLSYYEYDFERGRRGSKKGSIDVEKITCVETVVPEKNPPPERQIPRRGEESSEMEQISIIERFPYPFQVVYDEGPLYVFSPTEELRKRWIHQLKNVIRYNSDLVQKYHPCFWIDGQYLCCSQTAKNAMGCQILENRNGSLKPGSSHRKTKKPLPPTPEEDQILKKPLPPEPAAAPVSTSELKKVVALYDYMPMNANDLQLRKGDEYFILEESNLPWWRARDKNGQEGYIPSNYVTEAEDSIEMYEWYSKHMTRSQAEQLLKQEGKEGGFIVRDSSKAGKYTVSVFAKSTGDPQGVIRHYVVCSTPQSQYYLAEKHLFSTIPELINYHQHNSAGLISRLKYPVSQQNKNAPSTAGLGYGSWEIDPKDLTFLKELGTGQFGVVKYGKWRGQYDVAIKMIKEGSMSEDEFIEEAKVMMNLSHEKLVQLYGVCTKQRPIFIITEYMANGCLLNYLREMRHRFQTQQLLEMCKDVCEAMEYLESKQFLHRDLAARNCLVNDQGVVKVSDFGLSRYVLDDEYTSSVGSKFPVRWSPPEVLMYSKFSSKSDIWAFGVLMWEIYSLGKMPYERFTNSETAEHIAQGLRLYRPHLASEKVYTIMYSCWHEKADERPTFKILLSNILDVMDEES
Chain of BTK C481S (Q06187 whole entry C481S): as the sequence (Q06187 whole entry) above, with C481S counted along it
Chain of ITK (Q08881 whole entry): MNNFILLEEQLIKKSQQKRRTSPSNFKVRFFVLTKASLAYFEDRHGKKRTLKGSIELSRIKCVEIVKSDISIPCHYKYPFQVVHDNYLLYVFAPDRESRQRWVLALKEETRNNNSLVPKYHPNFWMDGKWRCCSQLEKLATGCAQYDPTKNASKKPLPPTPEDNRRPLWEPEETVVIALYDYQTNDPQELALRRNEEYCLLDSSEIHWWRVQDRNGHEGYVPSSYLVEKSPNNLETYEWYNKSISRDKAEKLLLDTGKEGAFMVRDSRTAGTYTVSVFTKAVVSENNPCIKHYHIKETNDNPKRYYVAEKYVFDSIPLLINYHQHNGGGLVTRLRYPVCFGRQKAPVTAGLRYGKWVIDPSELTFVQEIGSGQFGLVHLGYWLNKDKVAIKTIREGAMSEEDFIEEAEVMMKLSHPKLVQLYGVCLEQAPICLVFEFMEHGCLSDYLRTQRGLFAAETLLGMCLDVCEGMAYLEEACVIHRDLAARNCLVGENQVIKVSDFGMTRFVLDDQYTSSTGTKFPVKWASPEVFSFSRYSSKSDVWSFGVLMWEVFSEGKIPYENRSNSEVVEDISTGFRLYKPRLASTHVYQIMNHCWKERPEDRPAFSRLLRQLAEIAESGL

`CC1(COc2ccc3c(c2)ncn3-c2ccc3cccc(N4CCC(N)CC4)c3n2)COC1` [Crenolanib]: the IC50 was 258 nM in assay [1]; 35 nM in assay [2]; 2620 nM in assay [3]; 31.7 nM in [4]; 889 nM in [5].
Regarding `CCc1nc(C(N)=O)c(Nc2ccc(N3CCC(N4CCN(C)CC4)CC3)c(OC)c2)nc1NC1CCOCC1` [Gilteritinib, reference compound], the IC50 was 10.4 nM in assay [6]; 98.4 nM in [1]; 26.5 nM in assay [2]; 373 nM in [7]; 58.8 nM in assay [8]; 79.5 nM in assay [9]. The IC50 in [10] amounted to 44.7 nM; in [11], 176 nM; in assay [12], 28.1 nM; in assay [13], 119 nM; in assay [14], 35.8 nM; in [3], 500 nM. In addition, the IC50 in assay [15] turned out to be 36.2 nM; in [16] it was 2300 nM; in [4], 6.8 nM; in assay [17], 10.6 nM; in assay [5], 472 nM; in assay [18], 2230 nM.
For the molecule `NC(=O)[C@H]1CCN(c2ncnc(N)c2F)C[C@@H]1N1CCC[C@@H](Nc2cc(Cl)cc(C(F)(F)F)c2)C1=O` [SNS-062, reference compound], the IC50 in [19] is 49 nM; in assay [20], 4.5 nM; in assay [21] it was 0.4 nM.
